Results from article PMC11940343, “In Vitro and In Vivo Evaluation of the De Novo Designed Antimicrobial Peptide P6.2 Against a KPC-Producing P. aeruginosa Clinical Isolate” (Biomolecules, 2025).
No end group written: not given here.

Legend:
[1] = tested on: A549 (human lung adenocarcinoma, ATCC CCL-185); format: cell-based
Procedure: (§1) The toxic effect was evaluated indirectly using the colorimetric MTT assay (3-[4,5-dimethylthiazol-2-yl]-2,5-diphenyl tetrazolium bromide, Thermo Fisher Scientific Inc, Massachusetts, USA) on A549 (human lung adenocarcinoma, ATCC CCL-185) and RAW 264.7 (murine macrophage-like ATCC TIB-71) cell lines. Cell lines were kindly provided by Instituto de Virología e Innovaciones Tecnológicas (IVIT), (INTA-CONICET, Buenos Aires, Argentina).
(§2) For the assay, A549 cells were seeded in 96-well plates at a density of 1 × 10^4 cells per well, while RAW 264.7 cells were seeded at a density of 5 × 10^4 cells per well. The plates were incubated for 24 h at 37 °C with 5% CO^2 to allow cell adhesion. The peptide P6.2 was dissolved in distilled water at a stock concentration of 10.24 mg/mL, and serial dilutions were made in RPMI-1640 medium supplemented with 10% fetal bovine serum (FBS, Internegocios S.A., Mercedes, Argentina). The concentrations used to assess P6.2 toxicity were the same as those previously employed in bacterial studies to determine the minimum inhibitory concentration (MIC) in antimicrobial activity assays. For the A549 cell line, P6.2 concentrations ranged from 4 µg/mL to 1024 µg/mL using serial dilutions in culture medium. For the RAW 264.7 cells, P6.2 concentrations ranged from 256 µg/mL to 8 µg/mL, with the concentration range adjusted based on preliminary results obtained from the A549 cell line.
(§3) Peptides were added and plates were incubated for 24 h at 37 °C in a 5% CO2 atmosphere. After incubation, the culture medium was removed, and the cells were washed with PBS (Phosphate Buffered Saline pH 7.2) to remove any remnants of the treatments. Next, 100 µL of MTT solution (0.5 mg/mL in PBS) was added to each well, and the plates were incubated for 0.5 to 3 h at 37 °C. During this period, viable cells reduced MTT, forming visible formazan crystals under a light field microscope (Zeiss Primovent, Oberkochen, Germany), indicating the cell metabolism of the compound.
(§4) At the end of the incubation, the supernatant was removed, and 200 µL of DMSO was added to each well to dissolve the formazan crystals. The plates were shaken to homogenize the contents, and absorbance was measured at 570 nm using a microplate reader (RT2100, Rayto Life and Analytical Sciences Co., Ltd, Shenzhen, China). Triplicates were run for each treatment. Cell viability was calculated by setting the absorbance value obtained for untreated control cells as 100% viability.

[2] = tested on: RAW 264.7 (murine macrophage-like ATCC TIB-71); format: cell-based
Procedure: as §1, §2, §3, §4

[3] = tested on: Pseudomonas aeruginosa M13513; assay: MIC by broth microdilution (CLSI); format: cell-based; settings: CAMHB, two consecutive values shown where replicates varied by one dilution
Excerpt: Pseudomonas aeruginosa M13513 is a clinical isolate carrying the carbapenemase KPC-2 (blaKPC-2 gene). This strain was generously supplied by the Servicio Antimicrobianos, Instituto Nacional de Enfermedades Infecciosas (INEI)-ANLIS “Dr. Carlos G. Malbrán” in Buenos Aires, Argentina.
For antimicrobial testing, bacterial cultures were maintained in Cation-Adjusted Mueller–Hinton Broth (CAMHB), following Clinical and Laboratory Standards Institute (CLSI) guidelines.
The minimal inhibitory concentration was assessed using a standard microdilution assay, following CLSI guidelines. Mueller–Hinton Broth (Laboratorios Britania S.A., Buenos Aires, Argentina) supplemented with Ca^2+ (20–25 mg/L) and Mg^2+ (10–12.5 mg/L) was used for the assay. The bacterial strains tested included Pseudomonas aeruginosa PAO1, Pseudomonas aeruginosa M13513, and Staphylococcus aureus ATCC® 25923.

P. aeruginosa M13513 = assay: Galleria mellonella larval infection model; format: in vivo
Excerpt: Lepidoptera were reared in the laboratory in a standardized manner. A breeding colony was established, and the different stages of the insect’s life cycle were documented. Adult insects were housed in a plastic container without access to food, allowing for the collection of eggs. Then, eggs and larvae were placed in containers with fresh food, prepared from autoclaved wheat bran (50%), dry yeast (5%), beeswax (6%), honey (26%), and glycerin (13%). In each growth cycle, a pool of larvae was reserved to progress to pupa and adult generation. The larvae and eggs were kept at room temperature during the warm seasons and in an oven with humidity control at 30 °C during the cold seasons. For each experiment, a group of late-stage caterpillars was set aside and kept in the dark at a temperature of 10–12 °C, ensuring their use within one week of collection. For the in vivo tests, larvae of approximately 2 cm in length and an average weight of 250 mg were used. This average weight was used to calculate the antimicrobial doses. The bacterial inoculum used in the larval infection models was prepared from an ON culture, which was washed twice with physiological saline solution and adjusted by measuring OD600nm. […] The larvae were incubated at 37 °C, and their survival was monitored for five days.

[4] = tested on: P. aeruginosa strain PA01; settings: mice challenged with P. aeruginosa PA01; ref previous work; cited from earlier work
Excerpt: The antimicrobial peptide P6.2 was previously de novo designed as an alpha helix cationic amphipathic molecule. […] In this work, the peptide P6.2 antimicrobial activity and its possible synergy with ...

GLLRKWGKKWKEFLRRVWK-NH2 [Peptide P6.2]
LogCC50 [1]: 2.100 | CC50 (cytotoxic concentration 50%) ([1]; 24 h): 125.8 µg/mL | LogCC50 [2]: 2.188 | CC50 (cytotoxic concentration 50%) ([2]; 24 h): 154.1 µg/mL | MIC [3]: 32/64 | survival compared with meropenem 2.5 alone (log-rank test) (P. aeruginosa M13513; P6.2 5 + Mer 2.5 vs Mer 2.5): not significative differences | prevention of larvae death (P. aeruginosa M13513; peptide alone, 2.5-80 mg/kg single injection 1 h post infection, 10^3 CFU/larva, n = 10, 5 days): not effective | effect in murine acute lung infection model [4]: anti-inflammatory effects
